Reference: US20090215884A1, “METHOD FOR WOUND HEALING” (priority 2005, published 2009)

Experiments:
[1] = test system: fibroblasts; assay: Cytokine production by PEP005-treated human fibroblasts; assay type: cell-based; details: 6 h, supernatant
Protocol: (§1) Cytokine production by PEP005-treated human cells Confluent cultures of Me10538 cells, keratinocytes, fibroblasts and neutrophils were incubated for 6 h in the absence or presence of PEP005 (1-100 ng/ml). The supernatants were harvested and analyzed for the presence of the following cytokines; TNF-α, IL-6 and IL-8 using a multiplex detection kit (Biosource International, Nivelles, Belgium). Units of detected proteins are pg/ml.

[2] = test system: Me10538 cells; assay: Cytokine production by PEP005-treated human melanoma cells; assay type: cell-based; details: 6 h, supernatant
Protocol: as §1

[3] = test system: rat full-thickness incisional wounds; assay: Rat incisional wound healing model: tensiometric assessment of wound strength; assay type: in vivo; details: single topical treatment
From the text: In order to examine the effects of PEP005 on the repair of acute (surgical) incisional wounds, involving minimal new tissue generation, the rat, full-thickness incisional wound healing model, was employed.
Adult male Sprague Dawley rats (Harlan U.K. Ltd., Oxfordshire, U.K.), approximately 8-10 weeks old and weighing between 250-300 g, were used in this study. The animals were initially housed in groups of up to four per cage (cage dimensions 40×25×20 cm, with sawdust bedding, changed twice weekly), according to Home Office regulations, in an environment maintained at an ambient temperature of 23° C. with 12-hour light/dark cycles. The animals were provided food (Standard Rodent Diet) and water ad libitum. In order to acclimatize the animals to their surroundings, prior to experimentation, the animals were housed for a minimum of one week without disturbance, other than to refresh their bedding and to replenish their food and water provisions. Following wounding, animals were monitored under individual housed conditions until fully recovered from the procedure. Animals were then maintained individually for a period of 2 weeks (i.e. until their wounds have fully re-epithelialized). After this initial 2-week period, animals were maintained in groups of up to four for the remainder of the study. All animal procedures were performed in a Home Office licensed establishment, under U.K. Home Office Licences (PPL: 40/2650; PIL: 70/4934 and PIL: 60/7661).
Animals were anaesthetized using inhalation of Halothane and air, and the dorsum of each rat shaved and washed with the bactericide, chlorhexidine gluconate (0.05% aqueous). Four full-thickness incisional wounds (1 cm in length, include the panniculus carnosus and hypodermis) were created on the backs of each animal. Wounds remained unsutured (allowed to gape), in order to allow granulation tissue to form within the wounds. Following wounding (day 0), one of the four PEP005 concentrations (PEP005-free, DMSO/isopropanol gel vehicle, 0.01%, 0.028% or 0.05% PEP005) were applied to each wound, whilst non-treated wound controls remained untreated. […]
Immediately after injury, single treatments of the 0.01%, 0.028% PEP005, or DMSO/isopropanol vehicle gels, were applied at volumes of 10 μl per 100 mm^2 (1 μg/10 μl, 2.8 μg/10 μl and 5 μg/10 μl PEP005, respectively), to the marginal skin surrounding each wound, with a total area of 600 mm^2 of marginal skin receiving treatment. […] Rats were maintained in their respective experimental groups for 1, 4 and 12 weeks, when the animals in each group were euthanized and the condition of wound and peri-wound tissues (in terms of viability, erythema, oedema, etc.), monitored at all assessment points, according to Table 2.1. […]

C/C=C(/C)C(=O)O[C@H]1C(C)=C[C@]23C(=O)[C@@H](C=C(CO)[C@@H](O)[C@]12O)[C@H]1[C@@H](C[C@H]3C)C1(C)C [PEP005, ingenol-3-angelate] showed an IL-6 ([1]; PEP005 1 ng/ml) of 81 ± 4 pg/mL, an IL-8 ([1]; PEP005 1 ng/ml) of 79 ± 3 pg/mL and an IL-6 ([1]; PEP005 5 ng/ml) of 85 ± 4 pg/mL. It also gave an IL-8 ([1]; PEP005 5 ng/ml) of 160 ± 14 pg/mL, an IL-6 ([1]; PEP005 10 ng/ml) of 141 ± 6 pg/mL and an IL-8 ([1]; PEP005 10 ng/ml) of 215 ± 12 pg/mL. It also gave an IL-6 ([1]; PEP005 100 ng/ml) of 205 ± 5 pg/mL, an IL-8 ([1]; PEP005 100 ng/ml) of 239 ± 9 pg/mL and an IL-8 ([2]; PEP005 1 ng/ml) of under 2 pg/mL. It also gave an IL-8 ([2]; PEP005 5 ng/ml) of 210 ± 6 pg/mL, an IL-8 ([2]; PEP005 10 ng/ml) of 737 ± 26 pg/mL and an IL-8 ([2]; PEP005 100 ng/ml) of 390 ± 18 pg/mL. For the same molecule, the “mean tensile strength of wound” value ([3]; week 4, 0.01%, 0.028%, 0.05% PEP005 gel) was “dose dependent trend, with increasing tensile strength”, the “mean tensile strength of wound” value ([3]; week 12, 0.01% PEP005 gel) was “increasing” and the “mean tensile strength of wound” value ([3]; week 12, 0.028% PEP005 gel) was “declining at 0.028% to control levels”. The “mean tensile strength of wound” value ([3]; week 12, 0.05% PEP005 gel) was “another increase”.
